Measured values published in patent US4803074A, “FR-900848 substance and preparation thereof” (priority 1987, dated 1989).
In brackets after ≈: the same amount, converted by molar mass.

Tests used:
[1] = tested on: fungi; test: In vitro antimicrobial activity (summary statement); assay type: cell-based; conditions: for example Aspergillus niger, Geotrichum candidum, Trichophyton asteroides
Method: (§1) In vitro antimicrobial activity was determined by the two-fold agar-plate dilution method as described below.
(§2) One loopful of an overnight culture of each test strain in malt extract broth was streaked on malt extract agar containing graded concentrations of FR-900848 substance and MIC was determined after incubation at 37° C. for 20 hours.

[2] = tested on: Aureobasidium pullulans; test: MIC (minimal inhibitory concentration), two-fold agar-plate dilution method; assay type: cell-based; conditions: malt extract agar, 37° C., 20 hours
Method: as §1, §2

[3] = tested on: Mucor rouxianus (Calmette) Wehmer; test: as above; assay type: cell-based; conditions: 20 h, read-out: MIC (minimal inhibitory concentration)
Method: as §1, §2

[4] = tested on: Trichophyton asteroides; test: as above; assay type: cell-based; conditions: malt extract agar, 37° C., 20 hours
Method: as §1, §2

[5] = tested on: Sclerotinia arachidis; test: as above; assay type: cell-based; conditions: malt extract agar, 37° C., 20 hours
Method: as §1, §2

[6] = tested on: Fusarium oxysporum; test: as above; assay type: cell-based; conditions: malt extract agar, 37° C., 20 hours
Method: as §1, §2

[7] = tested on: Aspergillus niger IFO 4417; test: as above; assay type: cell-based; conditions: IFO4417, malt extract agar, 37° C., 20 hours
Method: as §1, §2

[8] = tested on: Geotrichum candidum; test: as above; assay type: cell-based; conditions: malt extract agar, 37° C., 20 hours
Method: as §1, §2

[9] = Acute toxicity by intraperitoneal injection; conditions: mouse, in vivo, ip, mice (ICR, male, 4 weeks old)
From the text: Acute toxicity of FR-900848 substance in mice (ICR, male, 4 weeks old) by intraperitoneal injection is more than 1.0 g/kg.

[10] = Solubility; assay type: physicochemical

CC1CC1C=CC1CC1C1CC1C1CC1C1CC1C=CC=CC(=O)NCC1OC(N2CCC(=O)NC2=O)C(O)C1O (centres unmarked) [FR-900848 substance]
antimicrobial activity against fungi [1]: showed antimicrobial activity
MIC [2]: 0.03 µg/mL (≈ 0.053 µM)
MIC [3]: 0.03 µg/mL (≈ 0.053 µM)
MIC [4]: 0.5 µg/mL (≈ 0.884 µM)
MIC [5]: 0.05 µg/mL (≈ 0.0884 µM)
MIC [6]: 0.05 µg/mL (≈ 0.0884 µM)
MIC [7]: 0.015 µg/mL (≈ 0.0265 µM)
MIC [8]: 0.12 µg/mL (≈ 0.212 µM)
LD50 [9]: > 1000 mg/kg
Solubility ([10]; chloroform): slightly soluble
Solubility ([10]; dimethylsulfoxide): soluble
Solubility ([10]; ethyl acetate): slightly soluble
Solubility ([10]; methanol): slightly soluble
Solubility ([10]; water): insoluble
